Measurements reported in ChEMBL document CHEMBL1795345, “Significant enhancement in radical-scavenging activity of curcuminoids conferred by acetoxy substituent at the central methylene carbon” (Bioorg Med Chem, 2011).

Legend:
[1] = tested on: Radical scavenging activity; assay: Antioxidant activity assessed as DPPH radical scavenging activity; format: functional
[2] = tested on: Radical scavenging activity; assay: Antioxidant activity assessed as reduction in compound induced DPPH radical scavenging activity at 100 uM in presence of 100 mM acetic acid measured 30 mins after mixing compound with DPPH; format: functional; parameters: scale not given: the % may be the effect or the level left

| SMILES | EC50 [1] [µM] | Activity [2] [%] |
| --- | --- | --- |
| CO/C(C(=O)/C=C/c1ccc(O)c(OC)c1)=C(O)\C=C\c1ccc(O)c(OC)c1 | 30.3 |  |
| COc1cc(/C=C/C(=O)/C(C)=C(O)/C=C/c2ccc(O)c(OC)c2)ccc1O | 23.2 |  |
| C=CC/C(C(=O)/C=C/c1ccc(OC)c(OC)c1)=C(O)\C=C\c1ccc(OC)c(OC)c1 | > 100 |  |
| COc1ccc(/C=C/C(=O)/C(C)=C(O)/C=C/c2ccc(OC)c(OC)c2)cc1OC | > 100 |  |
| C=CC/C(C(=O)/C=C/c1ccc(O)c(OC)c1)=C(O)\C=C\c1ccc(O)c(OC)c1 | 23.2 |  |
| COc1cc(/C=C/C(=O)/C(OC(C)=O)=C(O)/C=C/c2cc(OC)c(OC)c(OC)c2)cc(OC)c1OC | 27.4 | 25 |
| CO/C(C(=O)/C=C/c1ccc(OC)c(OC)c1)=C(O)\C=C\c1ccc(OC)c(OC)c1 | 75.5 |  |
| COc1cc(/C=C/C(=O)/C(OC(C)=O)=C(O)/C=C/c2cc(O)c(O)c(OC)c2)cc(O)c1O | 2.9 |  |
| CCOC(=S)S/C(C(=O)/C=C/c1ccc(OC)c(OC)c1)=C(O)\C=C\c1ccc(OC)c(OC)c1 | > 100 |  |
| COc1ccc(/C=C/C(=O)/C(OC(C)=O)=C(O)/C=C/c2ccc(OC)c(OC)c2)cc1OC | 22.1 | 25 |
| O=C1O[C@H]([C@@H](O)CO)C(O)=C1O [ASCORBIC ACID] | 15.7 |  |
| COc1cc(/C=C/C(=O)/C(OC(C)=O)=C(O)/C=C/c2ccc(O)c(OC)c2)ccc1O | 8.7 | 10 |
| COc1cc(/C=C/C(=O)CC(=O)/C=C/c2ccc(O)c(OC)c2)ccc1O [CURCUMIN] | 22.6 | 10 |
| COc1cc(/C=C/C(=O)/C=C(O)/C=C/c2cc(O)c(O)c(OC)c2)cc(O)c1O | 11.3 |  |
| CCOC(=S)S/C(C(=O)/C=C/c1ccc(O)c(OC)c1)=C(O)\C=C\c1ccc(O)c(OC)c1 | 29.7 |  |

Further lines, with some results ahead:

| EC50 [1] [µM] | SMILES | Activity [2] [%] |
| --- | --- | --- |
| 32.8 | COc1ccc(/C=C/C(=O)/C(OC(C)=O)=C(O)/C=C/c2ccc(OC)cc2)cc1 | 25 |
| 47.8 | CC(=O)O/C(C(=O)/C=C/c1ccccc1)=C(O)\C=C\c1ccccc1 | 25 |
| > 100 | O=C(/C=C/c1ccc(O)cc1)CC(=O)/C=C/c1ccc(O)cc1 [BISDEMETHOXYCURCUMIN] |  |
| 26.3 | CC(=O)O/C(C(=O)/C=C/c1ccc(O)cc1)=C(O)\C=C\c1ccc(O)cc1 | 13 |
| > 100 | COc1ccc(/C=C/C(=O)/C=C(O)/C=C/c2ccc(OC)c(OC)c2)cc1OC [DIMETHYLCURCUMIN] |  |
| > 100 | COc1ccc(/C=C/C(=O)/C=C(O)/C=C/c2ccc(OC)cc2)cc1 |  |
| > 100 | O=C(/C=C(O)/C=C/c1ccccc1)/C=C/c1ccccc1 |  |
